What was measured:
normal human plasma = experiment: Activated partial thromboplastin time assay (aPTT); type: biochemical; settings: 50% increase clotting time / CAT EC50
Method: The aPTT assay was performed to study anticoagulant activities of NASP. In brief, 50 μL of thawed normal human plasma pool (George King Biomedical, Overland Park, Kans.) was mixed with 5 μL of NASP sample (0-60 μg/mL final plasma concentration). NASPs were diluted in imidazole buffer (3.4 g/L imidazole; 5.85 g/L NaCl, pH 7.4) containing 1% albumin (Baxter, Austria). After addition of 50 μL aPTT reagent (STA APTT, Roche) the samples were incubated for 4 min at 37° C. Clotting was initiated by 50 μL of 25 mM CaCl2 solution (Baxter, Austria) and recorded for up to 5 min. All pipetting steps and clotting time measurements were carried out with an ACL Pro Elite (Instrumentation Laboratory, Bedford, Mass.) instrument. Samples were run in duplicate.
For data analysis, clotting time is plotted against the NASP concentration. Concentrations where the clotting time is 50% increased over the normal plasma control are determined using a linear curve fit.

full-length TFPI = molecular target: T1, full-length TFPI (Homo sapiens, UniProt P10646); experiment: Dilute prothrombin time assay with added TFPI (TFPI-dPT); type: biochemical; settings: normal human plasma
T1 construct: 0.5 μg/mL full-length TFPI (aa 1-276, constitutively produced by SKHep1); made in house; host or cells: SKHep1
T1 sequence (P10646 29-304): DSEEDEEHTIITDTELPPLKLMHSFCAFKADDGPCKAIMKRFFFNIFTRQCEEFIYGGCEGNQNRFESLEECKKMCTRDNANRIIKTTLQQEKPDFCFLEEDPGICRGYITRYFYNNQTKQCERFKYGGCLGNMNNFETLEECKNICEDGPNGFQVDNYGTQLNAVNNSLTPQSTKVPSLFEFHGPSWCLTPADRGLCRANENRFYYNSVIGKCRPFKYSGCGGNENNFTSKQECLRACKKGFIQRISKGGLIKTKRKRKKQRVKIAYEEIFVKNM
Method: A dilute prothrombin time assay with added TFPI (TFPI-dPT) was used to evaluate the TFPI-inhibiting effect of the different NASPs. Pooled normal human plasma (George King Biomedical, Overland Park, Kans.) was pre-incubated with 0.5 μg/mL full-length TFPI (aa 1-276, constitutively produced by SKHep1) and the respective NASP (0-5 μg/mL) for 15 min at RT. TF reagent TriniClot PT Excel S (Trinity Biotech, Wicklow, Ireland), diluted in Hepes-buffered saline 1:200 with 0.5% BSA was added to the plasma samples on an ACL Pro Elite hemostasis analyzer (Instrumentation Laboratory, Bedford, Mass.). Clotting was initiated with 25 mM CaCl2). The volume ratio of plasma:TF:CaCl2 was 1:1:1.
For data analysis, TFPI-dPT is plotted against the log concentration. Half maximal effective concentrations (EC50) values are determined using a sigmoidal curve fit.

[1] = system: FVIII-inhibited human whole blood; experiment: Rotation thromboelastometry (ROTEM); settings: for Activity: normal blood 100, FVIII-inh. blood 0
Method: NASPs (0.4-11 μg/mL) were studied in fresh citrated human whole blood by rotation thromboelastometry (ROTEM), an assay that allows continuous visco-elastic assessment of whole blood clot formation and firmness. Blood was incubated with anti-human FVIII plasma raised in goat (Baxter Bioscience, Austria) at 50 BU/mL to simulate hemophilic conditions. Clotting was triggered with 0.044 pM tissue factor (TF) (PRP reagent, Thrombinoscope BV) in the presence of 40 μg/mL CTI (Haematologic Technologies Inc., Essex Junction, Vt., USA). Then 300 μL of the pre-warmed (37° C.) FVIII-inhibited blood was recalcified with 20 μL of a 0.2 M CaCl2 solution. Clot formation was monitored using a ROTEM instrument (Pentapharm Munich, Germany) at 37° C. The final assay concentration of rTF was 44 fM. The ROTEM recording was started immediately and measured for at least 120 min. Each blood sample was analyzed in two independent measurements.
The thromboelastographic parameters of clotting time (CT), clot formation time (CFT) and maximum clot firmness (MCF) were recorded in accordance with the manufacturer's instructions. The first derivative of the thromboelastogram data is plotted to obtain a graph of velocity (mm/s) against time (s). From this graph, the maximum velocity (maxV) and the time at which the maximum velocity is reached (maxV-t) are also determined.

contact pathway = experiment: CAT in normal plasma with and without CTI; type: biochemical; settings: normal plasma, 1 pM hTF, 4 μM PL, ±41 μg/mL CTI

Q: Which “Ratio aPTT/CAT” value (normal human plasma) does the source give for sulfated 6-carboxy-icodextrin here?
A: Its value is “very good”.

Q: What about the “reversal of the effect of rec. FL-TFPI (in words)” value (full-length TFPI) of the same substance?
A: Its value is “reverses the anticoagulant effect of exogenous full-length TFPI”.

Q: And the CFT ([1]; +0.41 μg/ml)?
A: Its CFT is 388 s.

Q: And the CT ([1]; +0.41 μg/ml)?
A: Its CT is 1542 s.

Q: What about the MCF ([1]; +0.41 μg/ml) of the same substance?
A: Its MCF is 62 mm.

Q: And the Activity ([1]; +0.41 μg/ml)?
A: Its Activity is 108%.

Q: And the CFT ([1]; +1.23 μg/ml)?
A: The CFT was 172 s.

Q: What about the CT ([1]; +1.23 μg/ml) of the same substance?
A: The CT was 1078 s.

Q: What about the MCF ([1]; +1.23 μg/ml) of the same substance?
A: Its MCF is 63.5 mm.

Q: And the Activity ([1]; +1.23 μg/ml)?
A: Its Activity is 129%.

Q: And the CFT ([1]; +3.7 μg/ml)?
A: Its CFT is 223 s.

Q: And the CT ([1]; +3.7 μg/ml)?
A: Its CT is 1152 s.

Q: And the MCF ([1]; +3.7 μg/ml)?
A: Its MCF is 63 mm.

Q: And the Activity ([1]; +3.7 μg/ml)?
A: Its Activity is 125%.

Q: And the CFT ([1]; +11.1 μg/ml)?
A: Its CFT is 934 s.

Q: What about the CT ([1]; +11.1 μg/ml) of the same substance?
A: Its CT is 2526 s.

Q: And the Activity ([1]; +11.1 μg/ml)?
A: Its Activity is 63%.

Q: And the “restoration of coagulation (in words)” value ([1]; ROTEM, 0.044 pM TF)?
A: The value was “restores coagulation in FVIII-inhibited whole blood”.

Q: What about the “concentration activating the contact pathway” value (contact pathway) of the same substance?
A: The value was > 33000 ng/mL.
